In ChEMBL document CHEMBL1201862, “PubChem BioAssay data set” (2004):
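48-hour exposure; five concentrations; linearly interpolated endpoints. The concentration for 50% growth inhibition is given as GI50.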 Calls of active or inactive are those of the source. No stated cut-off is given here; in the data, active = GI50 up to about 1.1 µM and inactive = higher.

How the values were obtained:
Assay in all cases: NCI anticancer screen, dose series, 48 h
UACC-257 = system: UACC-257
NCI-H460 = system: NCI-H460
UO-31 = system: UO-31
COLO 205 = system: COLO 205
HOP-62 = system: HOP-62
Malme-3M = system: Malme-3M
SK-MEL-28 = system: SK-MEL-28
DU-145 = system: DU-145
Hs-578T = system: Hs-578T
HL-60 = system: HL-60
HCC 2998 = system: HCC 2998
A549 = system: A549
A498 = system: A498
U-251 = system: U-251
HOP-92 = system: HOP-92
MDA-MB-231 = system: MDA-MB-231
MDA-MB-435 = system: MDA-MB-435
SF-539 = system: SF-539
NCI-H522 = system: NCI-H522

Measured: GI50

COc1cc(OC)cc(-c2nc(O)c3ccccc3n2)c1
inactive: UACC-257 > 100 µM | NCI-H460 28.3 µM | UO-31 71.9 µM | COLO 205 > 100 µM | HOP-62 38.9 µM | Malme-3M > 100 µM | SK-MEL-28 > 100 µM | DU-145 > 100 µM | Hs-578T 38.8 µM | HL-60 > 100 µM | HCC 2998 > 100 µM | A549 > 100 µM | A498 31.1 µM | U-251 39.3 µM | HOP-92 > 100 µM | MDA-MB-231 86.1 µM | MDA-MB-435 > 100 µM

CC(=O)c1c(C)[n+]([O-])c2cc(Cl)c(Cl)cc2[n+]1[O-]
inactive: UACC-257 17.6 µM | SF-539 24.7 µM | NCI-H460 12 µM | UO-31 14.9 µM | COLO 205 15.7 µM | HOP-62 23.1 µM | Malme-3M 6.58 µM | SK-MEL-28 29.8 µM | DU-145 23.1 µM | Hs-578T 20.7 µM | HL-60 10.4 µM | HCC 2998 21.6 µM | NCI-H522 12.6 µM | A549 19.2 µM | A498 23.7 µM | U-251 21.8 µM | MDA-MB-231 22.1 µM | MDA-MB-435 21.3 µM

CC(C)c1ccc2c(c1)/C(=C1/Nc3ccccc3/C1=N/O)C(=O)N2
inactive: UACC-257 12.1 µM | NCI-H460 4 µM | UO-31 3.69 µM | COLO 205 5.22 µM | HOP-62 10.7 µM | Malme-3M 3.72 µM | SK-MEL-28 13.5 µM | DU-145 6.07 µM | Hs-578T 4.76 µM | HCC 2998 4.75 µM | NCI-H522 4.06 µM | A549 6.28 µM | A498 2.78 µM | U-251 7.23 µM | MDA-MB-231 15.3 µM | MDA-MB-435 7.38 µM

CC(C)Cc1cnc(CC(C)C)c(=O)[nH]1
inactive: UACC-257 > 100 µM | NCI-H460 > 100 µM | UO-31 > 100 µM | COLO 205 > 100 µM | HOP-62 > 100 µM | SK-MEL-28 > 100 µM | DU-145 > 100 µM | Hs-578T > 100 µM | HCC 2998 > 100 µM | A549 > 100 µM | A498 > 100 µM | U-251 > 100 µM | HOP-92 > 100 µM | MDA-MB-231 > 100 µM | MDA-MB-435 > 100 µM

Cn1c2c(c3ccccc31)CC(=O)N1CCCCC1C21OCCO1 (stereo not drawn)
inactive: UACC-257 > 100 µM | NCI-H460 > 100 µM | UO-31 > 100 µM | COLO 205 > 100 µM | HOP-62 > 100 µM | Malme-3M > 100 µM | SK-MEL-28 > 100 µM | DU-145 > 100 µM | Hs-578T > 100 µM | HCC 2998 > 100 µM | A549 > 100 µM | A498 > 100 µM | U-251 > 100 µM | HOP-92 > 100 µM | MDA-MB-231 > 100 µM | MDA-MB-435 > 100 µM

Clc1ccc(CCN(CCc2ccc(Cl)c(Cl)c2)CCN2CCCC2)cc1Cl
inactive: UACC-257 1.78 µM | SF-539 1.8 µM | NCI-H460 1.86 µM | UO-31 1.64 µM | COLO 205 1.89 µM | HOP-62 1.67 µM | Malme-3M 1.78 µM | SK-MEL-28 1.77 µM | DU-145 2.01 µM | Hs-578T 1.9 µM | HL-60 1.39 µM | HCC 2998 1.68 µM | NCI-H522 1.64 µM | A549 1.74 µM | A498 1.77 µM | U-251 1.6 µM | MDA-MB-231 1.56 µM | MDA-MB-435 1.44 µM

COc1ccccc1/C(=N\OCCC(=O)O)c1cccs1
inactive: UACC-257 > 100 µM | SF-539 > 100 µM | NCI-H460 > 100 µM | UO-31 > 100 µM | COLO 205 > 100 µM | HOP-62 > 100 µM | Malme-3M > 100 µM | SK-MEL-28 > 100 µM | DU-145 > 100 µM | Hs-578T 56.6 µM | HL-60 > 100 µM | HCC 2998 > 100 µM | A549 > 100 µM | A498 > 100 µM | U-251 > 100 µM | HOP-92 > 100 µM | MDA-MB-231 > 100 µM | MDA-MB-435 > 100 µM

CCOC(=O)CC[C@@H](NC(=O)c1ccc(NCc2ccc3nc(OC)c(OC)nc3c2)cc1)C(=O)OCC
inactive: UACC-257 15.7 µM | SF-539 18.5 µM | NCI-H460 20.6 µM | UO-31 26.5 µM | COLO 205 28.6 µM | HOP-62 > 77.4 µM | Malme-3M 19.5 µM | SK-MEL-28 16.1 µM | DU-145 58.2 µM | Hs-578T > 29.9 µM | HL-60 14.8 µM | HCC 2998 33.6 µM | NCI-H522 19.9 µM | A549 > 100 µM | U-251 > 100 µM | HOP-92 11.4 µM | MDA-MB-231 36.1 µM | MDA-MB-435 31.4 µM

COc1ccccc1-n1cnc2c1=NC(C)(C)NC=2C(N)=O
inactive: UACC-257 > 100 µM | SF-539 > 100 µM | NCI-H460 > 100 µM | COLO 205 > 100 µM | HOP-62 > 100 µM | Malme-3M > 100 µM | SK-MEL-28 > 100 µM | DU-145 > 100 µM | Hs-578T > 100 µM | HL-60 > 100 µM | HCC 2998 > 100 µM | NCI-H522 > 100 µM | A549 > 100 µM | A498 > 100 µM | U-251 > 100 µM | MDA-MB-231 > 100 µM | MDA-MB-435 > 100 µM

COc1ccc(CC2Cc3ccccc3CC(=O)N2)cc1OC (stereo not drawn)
inactive: UACC-257 47.4 µM | SF-539 > 100 µM | NCI-H460 42.8 µM | UO-31 > 100 µM | COLO 205 > 100 µM | HOP-62 > 100 µM | Malme-3M > 100 µM | SK-MEL-28 > 100 µM | DU-145 > 100 µM | Hs-578T > 100 µM | HL-60 21.4 µM | HCC 2998 > 100 µM | A549 > 100 µM | A498 > 100 µM | U-251 > 100 µM | HOP-92 89.5 µM | MDA-MB-231 > 100 µM | MDA-MB-435 55.8 µM

CCOC(=O)c1cc(NC(=O)N(CCC#N)CCN(C(=O)N[C@@H](Cc2ccccc2)C(=O)N[C@@H](CC(C)C)C(=O)NC)c2ccccc2)ccc1OC
inactive: UACC-257 24 µM | SF-539 31.3 µM | UO-31 34.4 µM | COLO 205 > 100 µM | HOP-62 41.8 µM | Malme-3M 29.4 µM | SK-MEL-28 28.9 µM | DU-145 44.6 µM | Hs-578T 42.2 µM | HCC 2998 35.1 µM | A549 > 100 µM | A498 63.7 µM | U-251 > 10 µM | HOP-92 34.3 µM | MDA-MB-231 74.5 µM | MDA-MB-435 30.9 µM

OB1OCc2ccccc21 [BENZOXABOROLE]
inactive: UACC-257 28.6 µM | SF-539 25.1 µM | NCI-H460 34.7 µM | UO-31 32.4 µM | COLO 205 33.7 µM | HOP-62 26.7 µM | Malme-3M > 100 µM | SK-MEL-28 21.6 µM | DU-145 > 100 µM | Hs-578T 62.1 µM | HL-60 > 100 µM | A549 33.8 µM | A498 34.5 µM | U-251 62.7 µM | MDA-MB-231 77.1 µM | MDA-MB-435 35.9 µM
